From patent US12162840B2, “Herbicidal compositions” (SYNGENTA PARTICIPATIONS AG, priority 2018, dated 2024)

Tested on: cool season plant species
Assay: B2 Post-emergence efficacy Test 2, cool season plant species
Type: in vivo
Settings: 15 days after application, 0=no damage, 100=total kill
Description: Seeds of a variety of test species (see Table B1) were sown in standard soil in pots. After cultivation for 12 days (post-emergence) under controlled conditions in a glasshouse (at 24/18° C. or 20/16° C., at day/night; 16 hours light; 65% humidity), the plants were sprayed with an aqueous spray solution derived from the formulation of the technical active ingredient dissolved in IF50 (see Table B2 for composition) and adjuvant (Genapol XO80) was added to the spray solution at a rate of 0.2% v/v. [table] [table] After application, the test plants were grown in a glasshouse under controlled conditions (as above) and watered twice daily. Herbicidal activity was evaluated 15 days after application on a 0-100 scale. The results, where 0=no damage to test plant and 100=total kill of test plant are shown below in Tables 6 to 9.

Cc1nn(C)c(=O)c(-c2c(F)ccc(Cl)c2CCc2ccc(F)cc2)c1OC(=O)C(C)C [Compound 1.125]
50: Herbicidal activity (0-100 scale) KCHSC (125 g/Ha) | Herbicidal activity (0-100 scale) LOLPE (30 g/Ha) | Herbicidal activity (0-100 scale) TRZAW (500 g/Ha)
40: Herbicidal activity (0-100 scale) ALOMY (500 g/Ha) | Herbicidal activity (0-100 scale) AVEFA (30 g/Ha) | Herbicidal activity (0-100 scale) GALAP (250 g/Ha) | Herbicidal activity (0-100 scale) LOLPE (15 g/Ha)
70: Herbicidal activity (0-100 scale) AVEFA (125 g/Ha) | Herbicidal activity (0-100 scale) AVEFA (250 g/Ha) | Herbicidal activity (0-100 scale) BEAVA (15 g/Ha) | Herbicidal activity (0-100 scale) BEAVA (125 g/Ha) | Herbicidal activity (0-100 scale) BEAVA (250 g/Ha) | Herbicidal activity (0-100 scale) BEAVA (500 g/Ha) | Herbicidal activity (0-100 scale) GALAP (500 g/Ha) | Herbicidal activity (0-100 scale) KCHSC (500 g/Ha) | Herbicidal activity (0-100 scale) LOLPE (125 g/Ha) | Herbicidal activity (0-100 scale) POAAN (250 g/Ha) | Herbicidal activity (0-100 scale) VERPE (15 g/Ha) | Herbicidal activity (0-100 scale) VERPE (30 g/Ha) | Herbicidal activity (0-100 scale) VERPE (60 g/Ha)
90: Herbicidal activity (0-100 scale) BRSNN (125 g/Ha) | Herbicidal activity (0-100 scale) BRSNN (250 g/Ha) | Herbicidal activity (0-100 scale) BRSNN (500 g/Ha) | Herbicidal activity (0-100 scale) CHEAL (15 g/Ha) | Herbicidal activity (0-100 scale) CHEAL (30 g/Ha) | Herbicidal activity (0-100 scale) CHEAL (60 g/Ha) | Herbicidal activity (0-100 scale) CHEAL (125 g/Ha) | Herbicidal activity (0-100 scale) CHEAL (250 g/Ha) | Herbicidal activity (0-100 scale) CHEAL (500 g/Ha) | Herbicidal activity (0-100 scale) LOLPE (500 g/Ha) | Herbicidal activity (0-100 scale) POLCO (15 g/Ha) | Herbicidal activity (0-100 scale) POLCO (30 g/Ha) | Herbicidal activity (0-100 scale) POLCO (60 g/Ha) | Herbicidal activity (0-100 scale) POLCO (125 g/Ha) | Herbicidal activity (0-100 scale) POLCO (250 g/Ha) | Herbicidal activity (0-100 scale) POLCO (500 g/Ha) | Herbicidal activity (0-100 scale) SINAR (125 g/Ha) | Herbicidal activity (0-100 scale) SINAR (250 g/Ha) | Herbicidal activity (0-100 scale) SINAR (500 g/Ha) | Herbicidal activity (0-100 scale) STEME (15 g/Ha) | Herbicidal activity (0-100 scale) STEME (30 g/Ha) | Herbicidal activity (0-100 scale) STEME (60 g/Ha) | Herbicidal activity (0-100 scale) STEME (125 g/Ha) | Herbicidal activity (0-100 scale) STEME (250 g/Ha) | Herbicidal activity (0-100 scale) STEME (500 g/Ha) | Herbicidal activity (0-100 scale) VERPE (500 g/Ha)
0: Herbicidal activity (0-100 scale) BROTE (15 g/Ha) | Herbicidal activity (0-100 scale) BROTE (30 g/Ha) | Herbicidal activity (0-100 scale) BROTE (60 g/Ha) | Herbicidal activity (0-100 scale) BROTE (125 g/Ha) | Herbicidal activity (0-100 scale) HORVW (15 g/Ha) | Herbicidal activity (0-100 scale) HORVW (30 g/Ha) | Herbicidal activity (0-100 scale) KCHSC (15 g/Ha) | Herbicidal activity (0-100 scale) POAAN (15 g/Ha) | Herbicidal activity (0-100 scale) TRZAW (15 g/Ha)
20: Herbicidal activity (0-100 scale) GALAP (30 g/Ha) | Herbicidal activity (0-100 scale) GALAP (60 g/Ha) | Herbicidal activity (0-100 scale) KCHSC (30 g/Ha) | Herbicidal activity (0-100 scale) POAAN (60 g/Ha) | Herbicidal activity (0-100 scale) TRZAW (125 g/Ha)
80: Herbicidal activity (0-100 scale) AVEFA (500 g/Ha) | Herbicidal activity (0-100 scale) BRSNN (15 g/Ha) | Herbicidal activity (0-100 scale) BRSNN (30 g/Ha) | Herbicidal activity (0-100 scale) BRSNN (60 g/Ha) | Herbicidal activity (0-100 scale) LOLPE (250 g/Ha) | Herbicidal activity (0-100 scale) SINAR (60 g/Ha) | Herbicidal activity (0-100 scale) VERPE (125 g/Ha) | Herbicidal activity (0-100 scale) VERPE (250 g/Ha)
10: Herbicidal activity (0-100 scale) ALOMY (15 g/Ha) | Herbicidal activity (0-100 scale) ALOMY (30 g/Ha) | Herbicidal activity (0-100 scale) BROTE (250 g/Ha) | Herbicidal activity (0-100 scale) BROTE (500 g/Ha) | Herbicidal activity (0-100 scale) HORVW (60 g/Ha) | Herbicidal activity (0-100 scale) HORVW (125 g/Ha) | Herbicidal activity (0-100 scale) HORVW (250 g/Ha) | Herbicidal activity (0-100 scale) HORVW (500 g/Ha) | Herbicidal activity (0-100 scale) POAAN (30 g/Ha) | Herbicidal activity (0-100 scale) TRZAW (30 g/Ha) | Herbicidal activity (0-100 scale) TRZAW (60 g/Ha)
30: Herbicidal activity (0-100 scale) ALOMY (60 g/Ha) | Herbicidal activity (0-100 scale) ALOMY (125 g/Ha) | Herbicidal activity (0-100 scale) AVEFA (15 g/Ha) | Herbicidal activity (0-100 scale) GALAP (125 g/Ha) | Herbicidal activity (0-100 scale) KCHSC (60 g/Ha) | Herbicidal activity (0-100 scale) TRZAW (250 g/Ha)
60: Herbicidal activity (0-100 scale) ALOMY (250 g/Ha) | Herbicidal activity (0-100 scale) AVEFA (60 g/Ha) | Herbicidal activity (0-100 scale) BEAVA (30 g/Ha) | Herbicidal activity (0-100 scale) BEAVA (60 g/Ha) | Herbicidal activity (0-100 scale) KCHSC (250 g/Ha) | Herbicidal activity (0-100 scale) LOLPE (60 g/Ha) | Herbicidal activity (0-100 scale) POAAN (125 g/Ha) | Herbicidal activity (0-100 scale) POAAN (500 g/Ha) | Herbicidal activity (0-100 scale) SINAR (15 g/Ha) | Herbicidal activity (0-100 scale) SINAR (30 g/Ha)
